Experimental findings from publication PMC8976073 (Nature Communications, 2022) are described below.

A word on the pKi: it is the Ki on a negative log10 scale, so that one unit is a factor of ten. Higher therefore signals a small Ki.

Assay in all cases: Competition binding: inhibition of WK(FITC)YMVm binding to FPR2 (wild type and mutants), HEK293F cells
Assay [1] concerns the target T1, FPR2 (Homo sapiens, UniProt P25090, E89A).
T1 construct: expressed in transfected cells; host or cells: HEK293F cells, pTT5 vector
T1 sequence (P25090 1-351 E89A): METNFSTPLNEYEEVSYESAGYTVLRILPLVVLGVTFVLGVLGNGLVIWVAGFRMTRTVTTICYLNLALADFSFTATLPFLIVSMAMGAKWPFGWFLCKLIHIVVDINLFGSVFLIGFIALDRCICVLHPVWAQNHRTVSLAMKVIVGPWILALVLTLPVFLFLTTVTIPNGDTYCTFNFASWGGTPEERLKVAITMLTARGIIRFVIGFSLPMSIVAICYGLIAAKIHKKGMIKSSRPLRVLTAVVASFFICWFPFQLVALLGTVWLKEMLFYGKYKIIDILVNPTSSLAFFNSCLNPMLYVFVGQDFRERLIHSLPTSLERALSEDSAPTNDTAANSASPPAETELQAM
As to conditions: FPR2 E89A, mean ± SEM. As for the experimental part:
(§1) The genes of wild-type FPR1 and FPR2 and mutants with a Flag tag at the N termini were cloned into pTT5 vector (Invitrogen) and expressed in HEK293F cells (Invitrogen). Cells were harvested 48 h post transfection with 1 μg ml^−1 plasmid. Cell-surface expression of the receptors was measured by mixing 10 μl cells with 15 μl of TBS buffer supplemented with 4% BSA, 20% (v/v) viability-staining solution 7-AAD (Invitrogen, Cat#00-6993-50), and 0.1% (v/v) anti-FLAG M2-FITC antibody (Sigma, Cat#F4049) at 4 °C for 20 min. After incubation, 175 μl of TBS buffer was added and the fluorescent signal was measured using a flow-cytometry reader (Guava easyCyte HT, Millipore). Then, the cells were washed and resuspended to a final concentration of 1 × 10^6 cells per ml in Hanks’ Balanced Salt Solution (HBSS) buffer supplemented with 0.5% bovine serum albumin (BSA) and 20 mM HEPES, pH 7.4.
(§2) The mean fluorescent intensity of each well was then read by the FCM reader. Total binding and nonspecific binding were measured in the absence and presence of the unlabeled ligand (200 μM WKYMVm), respectively. […] Mean fluorescent-intensity values were measured by flow cytometry. Data were analyzed using Prism 8.0 (GraphPad software).

Assay [2] deals with T2, FPR2 (Homo sapiens, UniProt P25090, L272W).
T2 construct: expressed in transfected cells; host or cells: HEK293F cells, pTT5 vector
T2 sequence (P25090 1-351 L272W): T1 sequence (P25090 1-351 E89A) with A89E, L272W
Conditions: FPR2 L272W, mean ± SEM. As for the experimental part:
as §1, §2

Assay [3] deals with T3, FPR2 (Homo sapiens, UniProt P25090, S211L).
T3 construct: expressed in transfected cells; host or cells: HEK293F cells, pTT5 vector
T3 sequence (P25090 with tags, fused parts or gaps S211L): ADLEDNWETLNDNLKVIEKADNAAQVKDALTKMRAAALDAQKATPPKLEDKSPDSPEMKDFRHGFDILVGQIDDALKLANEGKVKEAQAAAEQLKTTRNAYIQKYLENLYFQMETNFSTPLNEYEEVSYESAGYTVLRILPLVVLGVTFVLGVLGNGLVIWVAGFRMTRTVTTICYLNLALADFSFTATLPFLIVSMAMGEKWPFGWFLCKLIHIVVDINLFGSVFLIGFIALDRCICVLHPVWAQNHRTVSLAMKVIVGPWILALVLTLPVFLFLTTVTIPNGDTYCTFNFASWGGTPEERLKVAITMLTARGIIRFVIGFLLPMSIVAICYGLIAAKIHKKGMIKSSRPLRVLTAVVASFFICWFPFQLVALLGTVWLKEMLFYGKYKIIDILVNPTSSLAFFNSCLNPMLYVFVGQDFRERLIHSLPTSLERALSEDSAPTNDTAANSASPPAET
As to conditions: FPR2 Construct 2, mean ± SEM. As for the experimental part: as §1, §2

In assay [4] the target is T4, FPR2 (Homo sapiens, UniProt P25090, E89G).
T4 construct: expressed in transfected cells; host or cells: HEK293F cells, pTT5 vector
T4 sequence (P25090 1-351 E89G): T1 sequence (P25090 1-351 E89A) with A89G
Conditions: FPR2 E89G, mean ± SEM. As for the experimental part: as §1, §2

Assay [5] addresses T5, FPR2 (Homo sapiens, UniProt P25090, M85K).
T5 construct: expressed in transfected cells; host or cells: HEK293F cells, pTT5 vector
T5 sequence (P25090 1-351 M85K): T1 sequence (P25090 1-351 E89A) with M85K, A89E
As to conditions: FPR2 M85K, mean ± SEM. As for the experimental part:
as §1, §2

The target of assay [6] is T6, FPR2 (Homo sapiens, UniProt P25090, L198W).
T6 construct: expressed in transfected cells; host or cells: HEK293F cells, pTT5 vector
T6 sequence (P25090 1-351 L198W): T1 sequence (P25090 1-351 E89A) with A89E, L198W
As to conditions: FPR2 L198W, mean ± SEM. As for the experimental part: as §1, §2

Changes are numbered by the printed parent chain. pKi: −log10 of the molar value.

For the molecule `CC[C@H](C)[C@H](NC(=O)[C@H](CCC(=O)O)NC(=O)[C@H](CO)NC(=O)[C@@H](NC(=O)[C@H](CC(C)C)NC(=O)[C@H](CC(C)C)NC(=O)[C@H](CC(C)C)NC(=O)[C@H](CC(C)C)NC(=O)[C@H](CS)NC(=O)[C@H](CO)NC(=O)[C@H](Cc1ccccc1)NC(=O)CNC(=O)[C@H](CCCNC(=N)N)NC(=O)[C@@H]1CCCN1C(=O)[C@H](C)NC(=O)[C@H](CCSC)NC=O)[C@@H](C)O)C(=O)N[C@@H](CC(=O)O)C(=O)N[C@@H](CC(C)C)C(=O)N1CCC[C@H]1C(=O)N[C@H](C(=O)N[C@@H](CCCCN)C(=O)N[C@@H](CCCNC(=N)N)C(=O)N[C@@H](CCCNC(=N)N)C(=O)N[C@@H](C)C(=O)O)C(C)C` [fHN, N-formyl humanin], the pKi was 5.65 at FPR2 [1]; 6.32 at FPR2 [2]; 6.28 at FPR2 [3]; 6.24 on FPR2 [4]; 6.51 at FPR2 [5]; 6.19 on FPR2 [6].
